Experiments:
Type in all cases: cell-based, human
[1] = test system: parental PD-1negative NK-92 cells; experiment: IL-18BP mediated inhibition of IFN gamma secretion in parental PD-1 negative NK-92 cells (Example 18); details: IL-18BP-mediated inhibition of IFNγ secretion, IL-18 analyte 1 nM
Description: (§1) To characterize the resistance of anti-PD1-IL18 immunocytokines (IC) on PD-1 positive cells, the NK-92 cell line was used to generate a PD-1 expressing cell line and furthermore, to measure the inhibition of IFN[…] release upon incubation with IL-18 variants and ICs in the presence of increasing quantities of human IL-18BP.
(§2) On the day of experiment, parental PD-1^negative and PD-1^positive transduced cells were harvested and washed with PBS 1× and resuspended in medium (w/o IL-2) containing 1 ng/ml of recombinant human Interleukin-12 (SinoBiologicals, Cat #CT011-H08H). After counting, cells were seeded at 100 000 cells/well in a 384 well culture plate and incubated at 37° C./5% CO2. When indicated, cells were preincubated with anti-PD-1 antibody LZM-009 at 17 uM during 30 min at 37° C. […]
(§3) After 16-20 h incubation at 37° C./5% CO2, 5 μl of supernatant were carefully transferred to a 384 microwell OptiIPlate (Perkin Elmer; Cat #6007270) and Interferon-gamma (IFNγ) levels measured using the Human IFNγ AlphaLISA Assay Kit (Perkin Elmer, Cat #AL217C). […] AlphaLISA signal was then measured on an Enspire plate reader (Perkin Elmer) using 680 and 615 nm as excitation and emission wavelengths respectively. Half maximal inhibitory concentration (IC50) was calculated based on a variable slope, four parameter analysis using GraphPad PRISM software.

[2] = test system: PD-1 positive (transduced) KG-1 cells; experiment: IFN gamma secretion assay in PD-1 transduced KG-1 cells (Example 11)
Description: (§4) The KG-1 cell line was used to generate a PD-1 expressing cell line and furthermore, to measure IFNγ release upon incubation with IL-18 variants and corresponding IL-18 immunocytokines.
PD-1 expressing cell line generation: Briefly, KG-1 cells were transduced using lentiviral particles carrying the human PD-1 gene (PDCD1 NM_005018; Origene, CAT #: RC210364L3V) at a MOI (Multiplicity of Infection) of 30. Spinfection was performed at 1260 g during 90 min at 37° C. in the presence of 5 μg/ml of Polybrene and 10 mM of HEPES in complete culture media (RPMI, 10% FBS, 1% L-Glutamine). Five days after transduction, puromycin at a final concentration of 1 ug/ml was added to select for PD-1 positive cells. For culture maintenance, puromycin concentration was decreased to 0.5 μg/ml. Stable and homogenous expression of PD-1 was verified by surface staining (BD Pharmingen, #557860).
(§5) IFNγ release was assessed in PD-1 positive (transduced) KG-1 cells, as well as in the parental PD-1 negative cells. 0.5×10^5 cells were seeded into a 96-well U-bottom plate in culture media (RPMI, 10% FBS, 1% L-Glutamine) and stimulated with IL-18 variants/ICs for 20-24 h. The test items were diluted to 100 nM in culture medium, followed by 7 10-fold serial dilutions. The lowest concentration assessed was […]. After incubation, IFNγ release was measured using the LEGENDplex custom human mix and match KIT (Biolegend LEGENDplex™ Human IFN-γ Capture Bead B5, 13X #740942, LEGENDplex™ HU Essential Immune Response Panel Detection Abs, #740931, LEGENDplex™ Buffer Set A #740368). To this end, cell culture supernatant was collected and diluted 1:1 with Assay Buffer. Fluorescence measurements were done with a Quanteon Flow Cytometer from Acea Biosciences. For analysis, MFI values (median fluorescence intensity) were exported and plotted against concentrations used. The EC50 values (half maximal effective concentration) were calculated based on a variable slope and four parameter analysis using GraphPad PRISM software version 9.

[3] = test system: parental PD-1negative NK-92 cells; experiment: IFN gamma secretion assay in parental PD-1 negative NK-92 cells (Example 17); details: IFNγ secretion
Description: (§6) To show selectivity of the anti-PD1-IL18 immunocytokine (IC) for PD-1 positive cells, the NK-92 cell line was used to generate a PD-1 expressing cell line and furthermore, to measure IFN[…] release upon incubation with IL-18 variants and ICs.
(§7) On the day of experiment, parental PD-1negative and PD-1positive transduced cells were harvested and washed with PBS 1× and resuspended in medium (w/o IL-2) containing 1 ng/ml of recombinant human Interleukin-12 (SinoBiologicals, Cat #CT011-H08H). After counting, cells were seeded at 100 000 cells/well in a 384 well culture plate and incubated at 37° C./5% CO2. When indicated, cells were preincubated with anti-PD-1 antibody LZM-009 at 17 uM during 30 min at 37° C. […] The lowest concentration assessed was 0.8 fM.
as §3, with “OptiPlate” for “OptiIPlate”, “levels were” for “levels”, “effective” for “inhibitory”, “(EC50)” for “(IC50)”

[4] = test system: PD-1positive transduced NK-92 cells; experiment: IL-18BP mediated inhibition of IFN gamma secretion in PD-1 positive transduced NK-92 cells (Example 18)
Description: as §1, §2, §3

[5] = test system: PD-1positive transduced NK-92 cells; experiment: IFN gamma secretion assay in PD-1 positive transduced NK-92 cells (Example 17)
Description: as §6, §7
as §3, with “OptiPlate” for “OptiIPlate”, “levels were” for “levels”, “effective” for “inhibitory”, “(EC50)” for “(IC50)”

[6] = test system: parental PD-1 negative KG-1 cells; experiment: IFN gamma secretion assay in parental PD-1 negative KG-1 cells (Example 11); details: IFNγ secretion
Description: as §4, §5

SEQ ID NO: 1: Native sequence of human IL-18 (bioactive form) [reference compound]
IC50 [1]: 2970 pM
EC50 ([2]; IFNγ secretion, PD-1 transduced KG-1): 297 pM
PD-1^neg/PD-1^pos EC50 ratio ([2]; KG-1 cells): 1.298
EC50 [3]: 158 pM
IC50 ([4]; IL-18BP-mediated inhibition of IFNγ secretion, IL-18 analyte 1 nM): 2670 pM
PD-1^pos/PD-1^neg IC50 ratio ([4]; NK-92 cells): 1.2
EC50 ([5]; IFNγ secretion): 130 pM
PD-1^neg/PD-1^pos EC50 ratio ([5]; NK-92 cells): 1.4
EC50 [6]: 387 pM

From patent publication US20250186597A1, “TARGETED IMMUNE ACTIVATION WITH IL-18 IMMUNOCYTOKINES” (BRIGHT PEAK THERAPEUTICS AG, priority 2023, published 2025)
